PMC9718777, “A growth selection system for the directed evolution of amine-forming or converting enzymes” (Nature Communications, 2022)

Key:
[1] = target: T1, AtTA(RHC), (R)-selective amine transaminase (Aspergillus terreus, UniProt Q0C8G1, H55R/F115H/E117C); assay: specific activity of purified variant with pyruvate; asymmetric synthesis; type: biochemical
T1 construct: gene ATEG_10023

[2] = target: T2, AtTA(wt), (R)-selective amine transaminase (Aspergillus terreus, UniProt Q0C8G1); assay: specific activity of purified enzyme with pyruvate; type: biochemical
T2 construct: gene ATEG_10023
T2 sequence (Q0C8G1 1-325): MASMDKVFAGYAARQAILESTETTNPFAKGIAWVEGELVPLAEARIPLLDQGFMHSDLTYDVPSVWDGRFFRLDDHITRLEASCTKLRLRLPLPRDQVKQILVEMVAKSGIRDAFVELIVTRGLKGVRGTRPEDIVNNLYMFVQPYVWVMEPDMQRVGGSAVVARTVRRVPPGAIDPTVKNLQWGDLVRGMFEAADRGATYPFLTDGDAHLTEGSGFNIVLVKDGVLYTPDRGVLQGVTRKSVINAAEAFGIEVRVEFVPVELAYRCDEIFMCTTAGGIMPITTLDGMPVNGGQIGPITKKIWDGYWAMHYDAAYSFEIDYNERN

[3] = target: T2, AtTA(wt), (R)-selective amine transaminase; assay: specific activity (benchmark substrate); type: biochemical
[4] = target: T3, PcPAL(wt), phenylalanine ammonia lyase (Petroselinum crispum, UniProt P24481); assay: specific activity of purified enzyme; type: biochemical
T3 construct: gene PAL1

[5] = target: T4, PcPAL(AI), phenylalanine ammonia lyase (Petroselinum crispum, UniProt P24481, L134A/L256I); assay: specific activity of purified variant (amination of […]); type: biochemical
T4 construct: gene PAL1; purified variant of full-length PcPAL, recombinant in E. coli; MIO-dependent homotetramer

[6] = target: T3, PcPAL(wt), phenylalanine ammonia lyase; assay: specific activity; type: biochemical
C[C@H](N)c1cccc2ccccc12 = assay: purified protein; type: biochemical, Microbacterium oxydans; conditions: FAD active site
purified protein = substrate: C[C@H](N)c1cccc2ccccc12; assay: purified protein; type: biochemical, Microbacterium oxydans; conditions: FAD active site; remark: listed apart in the source

Molecule: CC(C)(C)OC(=O)N1CCC[C@@H](N)C1 [(R)-1, (R)-1-Boc-3-aminopiperidine]
- specific activity of purified variant with pyruvate; asymmetric synthesis [1]: 4.2 U/mg
- specific activity of purified enzyme with pyruvate [2]: 0.038 U/mg

Molecule: C[C@@H](N)c1ccccc1 [(R)-1-phenylethylamine]
- specific activity (benchmark substrate) [3]: 2.9 U/mg

Molecule: N[C@@H](Cc1cccc2ccccc12)C(=O)O [(S)-5, (S)-2-amino-3-(naphthalen-1-yl)propanoic acid]
- specific activity of purified enzyme [4]: 0.0027 U/mg

Molecule: O=C(O)/C=C/c1cccc2ccccc12 [compound 6, 6]
- specific activity of purified variant (amination of 6) [5]: 0.55 U/mg

Molecule: N[C@@H](Cc1ccccc1)C(=O)O [ʟ-phenylalanine]
- specific activity [6]: 0.147 U/mg

Molecule: CHAO(MVLM), cyclohexylamine oxidase (Microbacterium oxydans; L182V/M209L/T181M/Y304M)
- Km (C[C@H](N)c1cccc2ccccc12): 2.2 mM

B1: CHAO(wt), cyclohexylamine oxidase (Microbacterium oxydans) (protein)
chain: THLNTYESVTPDPDVDVIIIGAGISGSAAAKALHDQGASVLVVEANDRIGGRTWTEQEGAPGGPIDYGGMFIGETHTHLIELGTSLGLEMTPSGKPGDDTYIVAGNVLRAPDDQLDPNLPFVPEFLSSLKALDELADSVGWDQPWASPNAAALDSKTVATWLAETIESEEVRRLHTVIVNTLLGADPYEVSLLYWAYYVSECEGIQSLMGTRDGAQWAWWFGGAAQVSWRIADAIGRDKFLLEWPVDRIEHDESGVTLFSGQRSLRARHIVIAMSPLAANQIRFEPALPTSRAQLQARAPMGRYYKVQARYPSSFWVEQGYSGALLDTEDVGVFLLDGTKPTDTLATLIGFIGGSNYDRWAAHTPQERERAFLDLLVKAFGPQAADPSYFHETDWTQQEWAKGGPVTYMPPGVLANFGAALRDPVGKVHFAGTEASFQWSGYMEGGVRAGQKAAAAIAEELERTANKGALV
- Km (purified protein): 4.5 mM
